Reference: EP1566177A1, “The use of bisphosphonates for treating skin by stimulating of collagen synthesis” (Tigen Biotech Co., Ltd., priority 2004, dated 2005)

How the values were obtained:
Type in all cases: cell-based
[1] = tested on: fibroblasts isolated from human dermis; assay: RT-PCR analysis of type 1 collagen mRNA level, two-dimensional culture of dermal fibroblasts
Description: Namely, total mRNA to be used in cDNA synthesis was isolated from the cells of the control and test groups using an RNeasy mini kit (QIAGEN, CA, USA). Then, the amount of the isolated total mRNA was calculated by measuring the absorbance at 260nm/280nm using an UV spectrophotometer (Eppendorf, Hamburg, Germany), thus quantifying the extracted mRNA and determining its purity (data not shown). Thereafter, 0.5 µg of the total mRNA was reacted with reverse transcriptase (Promega, WI, USA) using an oligo d(T) primer for one hour at 42 °C and for 5 minutes at 95 °C, and then the reaction was stopped at 4°C, thus synthesizing cDNA. The synthesized cDNA template was subjected to polymerase chain reaction (hereinafter, referred to as "PCR") using complementary primers of 5'-[sequence]-3' (SEQ ID NO: 1) (sense) and 5'-[sequence]-3' (SEQ ID NO: 2) (anti-sense). In the RT-PCR reaction, water was added to a reaction mixture of 0.5 µl of the template, 0.7 µl of each primer (10 pmole/µl) and PCR premix (Bioneer, Korea) to a final volume of 20 µl, and then, the aqueous mixture was pre-denatured at 94°C for 5 minutes using a thermal cycler and then subjected to 25 PCR cycles (each cycle consisting of 30 seconds at 94 °C, 30 seconds at 58 °C, and 30 seconds at 72 °C). Also, in the RT-PCR reaction, glyceraldehyde-3-phosphate dehydrogenase (GAPDH) was used as a positive control.
Then, the isolated fibroblasts were cultured in the second culture medium as described above under the same conditions for 2 days. Then, the cultured fibroblasts were supplied with a second culture medium containing 100 nM pamidronate at 3-day intervals and cultured in the medium for each period of 1 week, 2 weeks and 3 weeks. Also, fibroblasts cultured in a second culture medium containing 1mM vitamin C were used as a positive control group, and fibroblasts cultured in a secondary culture medium containing no vitamin C and pamidronate was used as a control group. […]

[2] = tested on: fibroblasts isolated from human oral epithelium; assay: RT-PCR analysis of type 1 collagen mRNA level, two-dimensional culture of oral fibroblasts; conditions: 100 ng/ml pamidronate together with 1mM vitamin C; cultured 1, 2 and 3 weeks (1WR, 2WR, 3WR) vs control medium without both
Description: (§1) The epithelium naturally exuded from a patient who had been undergoing a surgical operation due to oral diseases was mixed with […] DMEM (LG-DMEM, glucose 1g/L, GIBCO, MO, USA) medium, a first culture medium, and the mixture was pre-centrifuged to isolate cells. The cells were ultra-centrifuged using Percoll solution (SIGMA, MD, USA), thus isolating only nucleated cells. The nucleated cells isolated as described above cultured in an incubator under conditions of 5% (v/v) CO2 and 37.5 °C while replacing a second culture medium (high-glucose DMEM medium containing 10% bovine fetal serum) at two-day intervals, and only fibroblasts were isolated from the culture medium.
The isolated fibroblasts were cultured in said second culture medium under the same conditions for 2 days to saturate them. […]
The collagen mRNA levels of the 1-week cultured control group (1WC), the 2-week cultured control group (2WC), the 3-week cultured control group (3WC), the 1-week cultured test group (1WR), the 2-week cultured test group (2WR) and the 3-week cultured group (3WR), which had been collected in Example 1-2), were measured and compared with each other. […]

[3] = tested on: fibroblasts isolated from human dermis; assay: Western blot analysis of type 1 collagen expression, two-dimensional culture of dermal fibroblasts
Text: The levels of type 1 collagen in the 3-week cultured control group (3WC) and the 3-week cultured test group (3WR), which had been collected in Example 1-2), were compared with each other. For this purpose, each sample was subjected to Western blot analysis. In the Western blot analysis, each sample was electrophoresed on 8% SDS-PAGE gel, and the resulting collagen band was transferred to a nitrocellulose membrane and then treated with type 1 collagen monoclonal antibody (Abcam, Cambridge, UK) (see FIG. 2). In the Western blot analysis, actin was also used as a positive control group.
Fibroblasts were isolated from skin dermis and subcultured, in the same manner as in Example 2. Then, the isolated fibroblasts were cultured in the second culture medium as described above under the same conditions for 2 days. Then, the cultured fibroblasts were supplied with a second culture medium containing 100 nM pamidronate at 3-day intervals and cultured in the medium for each period of 1 week, 2 weeks and 3 weeks. […]
RT-PCR on each of the 1-week, 2-week and 3-week cultured control groups, the 1-week, 2-week and 3-week cultured test group administered with pamidronate, and the 1-week, 2-week and 3-week cultured positive control group administered with vitamin. […] The mRNA levels of type 1 collagen in the samples, as measured in the RT-PCR reactions, were shown in FIG. 4 for comparison with each other. […]

[4] = tested on: fibroblasts isolated from human oral epithelium; assay: Western blot analysis of type 1 collagen protein level, two-dimensional culture of oral fibroblasts; conditions: 100 ng/ml pamidronate together with 1mM vitamin C; 3-week culture (3WR) vs control (3WC)
Description: as §1
The isolated fibroblasts were cultured in said second culture medium under the same conditions for 2 days to saturate them. Then, the saturated fibroblasts were cultured in a second culture medium containing 1mM vitamin C and 100 ng/ml pamidronate (Hanlim Pharm. Co., Ltd., Korea) for each period of 1 week, 2 weeks and 3 weeks, while replacing the medium at 3-day intervals. As a control group, a second culture medium containing no vitamin C and pamidronate was used.
The levels of type 1 collagen in the 3-week cultured control group (3WC) and the 3-week cultured test group (3WR), which had been collected in Example 1-2), were compared with each other. […]

[5] = tested on: fibroblasts isolated from human dermis; assay: Three-dimensional culture of dermal fibroblasts on PLGA support, haematoxylin-eosin staining of collagen layer; conditions: 100 nM pamidronate together with 1 mM vitamin C; 4 weeks; control: vitamin C alone
Description: A given amount of dermal tissue was excised from the skin of three normal persons. The excised human dermis from which an epidermal and fatty layer had been removed was finely cut and treated with collagenase so as to isolate dermis from epidermis. The isolated dermal tissue was cultured in 0.25% trypsin solution at 36 °C for 10 minutes. Then, the culture broth was vortexed to isolate fibroblasts. The isolated cells were collected and washed, and then cultured in a DMEM medium (GIBCO, MO, U.S.A.) containing 10% fetal bovine serum (FBS). At about 70% confluence, they were subcultured.
A PLGA-based, disc-shaped polymer support (Innotech., Korea) with a diameter of 10 mm, a thickness of 3 mm, an average pore size of 300-500 µm and a porosity of 90%, was used in three-dimensional culture. The support was treated with 100 %(v/v), 90 %(v/v), 70 %(v/v) and then 10 %(v/v) ethanol in order, at 4 °C for each treatment, and washed with PBS (phosphate buffered saline) and a second culture medium followed by drying. Next, 100 µl of a suspension of 1 x 10^6 dermal fibroblasts cultured as described above was plated on the support and cultured in a culture dish with a diameter of 60 mm. After two hours, 6 ml of the second culture medium as described above was added to the cells, and the mixture was cultured in a shaking incubator (30rpm). […]

O=C1O[C@H]([C@@H](O)CO)C(O)=C1O [vitamin C] was tested, and the “mRNA level of type 1 collagen” value ([1]; 1mM vitamin C alone (positive control), cultured 1, 2 and 3 weeks) was “increased rapidly in the initial stage of culture, but it was reduced with an increase in culture time”.

With NCCC(O)(P(=O)(O)O)P(=O)(O)O [pamidronate, 3-amino-1-hydroxypropylidene-1,1-bisphosphonic acid] the “mRNA level of type 1 collagen” value [2] was “higher mRNA level than that of the 3-week cultured control group”, the “mRNA level of type 1 collagen” value ([1]; 100 nM pamidronate alone, cultured 1, 2 and 3 weeks) was “high regardless of culture period” and the “expression level of type 1 collagen” value ([3]; 100 nM pamidronate alone, three weeks of culture, compared with single addition of 1mM vitamin C) was “remarkable increase”. For the same compound, the “type 1 collagen protein level” value [4] was “synthesized at a remarkably high level” and the “layer of collagen adhered to the surface of the PLGA support” value [5] was “much thicker than the case of addition of vitamin C alone”.

With NCCCC(O)(P(=O)(O)O)P(=O)(O)O [alendronate, 4-amino-1-hydroxybutylidene-1,1-bisphospnonic acid] the “mRNA level of type 1 collagen” value ([1]; alendronate alone, same concentration as pamidronate (100 nM), cultured one week, FIG. 6) was “remarkably increased” and the “type 1 collagen protein (Western blot)” value ([3]; alendronate alone, same concentration as pamidronate (100 nM), cultured one week, FIG. 7) was “remarkably increased”.
